Assay results published in patent publication US9120812B2, “Pyrimidooxazocine derivatives as mTOR-inhibitors” (SANOFI, priority 2012, dated 2015).

Assays:
[1] = molecular target: mTOR (human recombinant aa mTOR 1360-2549) (Homo sapiens (Human), UniProt P42345); assay: mTOR enzymatic test by TR-FRET (phosphorylation of GFP-4EBP1); type: biochemical
Procedure, shortened: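 TR-FRET detection of GFP-4EBP1 phosphorylation by a terbium-labelled anti-phospho-Thr46 antibody. Kinase reaction ran 30 min at room temperature, was quenched with EDTA (10 mM final) plus Tb-antibody (2 nM final) and left 60 min. Emission at 520 and 490 nm after 340 nm excitation, reported as the 520/490 ratio.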

[2] = molecular target: PI3Kα (p110α/p85α) (Homo sapiens (Human), UniProt P42336); assay: PI3Kα enzymatic test by measuring the consumption of ATP; type: biochemical
Procedure, shortened: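 p110α/p85α (1.7 μg/ml) with 50 μM PIP2 and 2 μM ATP in pH 7.5 Tris buffer with EGTA, MgCl2, Chaps, DTT; reaction 90 min. Remaining ATP measured by luciferin/luciferase luminescence; IC50 from threefold serial dilutions spanning at least 10 000-fold.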

[3] = test system: U87MG tumour cells; assay: Test of in vitro proliferation of U87MG tumour cells; type: cell-based; conditions: Homo sapiens, U-87 MG, 72 h, U87MG cells, 72 hours; read-out: U87 Cell Proliferation IC50
Procedure: Model 4: Test of in vitro Proliferation of U87MG Tumour Cells.
The cell growth is determined with the reagent CellTiter 96 AQueous One Solution Cell Proliferation Assay from Promega (Cat. No. G3581).

[4] = test system: Akt-pS473 in U87MG cells; conditions: Homo sapiens, U-87 MG; for IC50: read-out: U87 Akt-pS473 % Inhibition or IC50, nM (IC50), U87MG cells
[5] = read-out: U87 Akt-pS473 % Inhibition

Sequence of PI3Kα (p110α/p85α) (P42336 whole entry): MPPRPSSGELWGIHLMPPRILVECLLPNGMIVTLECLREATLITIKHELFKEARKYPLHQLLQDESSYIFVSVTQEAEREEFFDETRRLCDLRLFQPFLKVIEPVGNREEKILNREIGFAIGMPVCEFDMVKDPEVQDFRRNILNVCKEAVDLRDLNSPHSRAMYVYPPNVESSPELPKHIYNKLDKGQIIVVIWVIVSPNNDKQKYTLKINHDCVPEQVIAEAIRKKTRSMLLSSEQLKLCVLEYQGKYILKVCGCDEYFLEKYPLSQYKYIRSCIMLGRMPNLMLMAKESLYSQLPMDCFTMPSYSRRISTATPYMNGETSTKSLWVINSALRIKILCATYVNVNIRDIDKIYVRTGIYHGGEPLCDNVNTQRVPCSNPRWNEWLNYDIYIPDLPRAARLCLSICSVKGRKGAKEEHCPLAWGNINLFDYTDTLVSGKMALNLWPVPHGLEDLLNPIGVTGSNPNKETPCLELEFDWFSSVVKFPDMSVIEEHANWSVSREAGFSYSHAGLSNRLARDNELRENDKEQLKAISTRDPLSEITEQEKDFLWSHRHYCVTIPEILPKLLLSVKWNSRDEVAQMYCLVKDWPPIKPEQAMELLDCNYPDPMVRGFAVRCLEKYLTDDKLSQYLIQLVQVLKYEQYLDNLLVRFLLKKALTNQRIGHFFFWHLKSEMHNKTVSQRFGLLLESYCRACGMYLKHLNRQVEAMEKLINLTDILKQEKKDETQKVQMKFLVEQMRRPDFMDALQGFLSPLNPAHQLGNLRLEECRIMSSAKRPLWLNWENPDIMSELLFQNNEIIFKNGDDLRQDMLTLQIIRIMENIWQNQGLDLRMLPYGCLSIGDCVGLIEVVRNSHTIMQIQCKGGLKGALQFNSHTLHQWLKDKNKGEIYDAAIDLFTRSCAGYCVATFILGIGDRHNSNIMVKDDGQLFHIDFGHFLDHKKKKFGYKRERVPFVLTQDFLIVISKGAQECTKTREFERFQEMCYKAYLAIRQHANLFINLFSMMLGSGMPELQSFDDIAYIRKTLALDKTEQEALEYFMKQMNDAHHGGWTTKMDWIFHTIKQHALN
Sequence of PI3Kα (p110α/p85α) (P27986 whole entry partner): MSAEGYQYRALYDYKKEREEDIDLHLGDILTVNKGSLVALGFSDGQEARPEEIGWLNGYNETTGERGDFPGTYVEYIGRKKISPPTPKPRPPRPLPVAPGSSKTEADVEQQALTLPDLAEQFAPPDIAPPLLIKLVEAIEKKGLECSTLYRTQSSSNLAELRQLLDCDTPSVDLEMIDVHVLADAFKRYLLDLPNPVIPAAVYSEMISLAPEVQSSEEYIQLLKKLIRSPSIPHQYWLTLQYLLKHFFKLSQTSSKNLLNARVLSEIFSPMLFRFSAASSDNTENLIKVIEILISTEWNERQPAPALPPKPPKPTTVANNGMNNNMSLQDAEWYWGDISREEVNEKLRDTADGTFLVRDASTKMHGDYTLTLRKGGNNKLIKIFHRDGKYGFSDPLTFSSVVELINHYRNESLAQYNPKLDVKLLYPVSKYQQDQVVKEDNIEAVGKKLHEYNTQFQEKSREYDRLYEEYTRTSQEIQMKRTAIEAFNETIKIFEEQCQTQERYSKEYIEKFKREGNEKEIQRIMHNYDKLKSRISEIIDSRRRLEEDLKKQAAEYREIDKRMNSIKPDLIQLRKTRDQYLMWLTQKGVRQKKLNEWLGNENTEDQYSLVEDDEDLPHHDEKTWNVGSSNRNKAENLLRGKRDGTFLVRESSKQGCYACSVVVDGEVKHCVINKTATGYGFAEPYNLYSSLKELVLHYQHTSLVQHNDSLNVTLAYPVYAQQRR
Sequence of mTOR (human recombinant aa mTOR 1360-2549) (P42345 1360-2549): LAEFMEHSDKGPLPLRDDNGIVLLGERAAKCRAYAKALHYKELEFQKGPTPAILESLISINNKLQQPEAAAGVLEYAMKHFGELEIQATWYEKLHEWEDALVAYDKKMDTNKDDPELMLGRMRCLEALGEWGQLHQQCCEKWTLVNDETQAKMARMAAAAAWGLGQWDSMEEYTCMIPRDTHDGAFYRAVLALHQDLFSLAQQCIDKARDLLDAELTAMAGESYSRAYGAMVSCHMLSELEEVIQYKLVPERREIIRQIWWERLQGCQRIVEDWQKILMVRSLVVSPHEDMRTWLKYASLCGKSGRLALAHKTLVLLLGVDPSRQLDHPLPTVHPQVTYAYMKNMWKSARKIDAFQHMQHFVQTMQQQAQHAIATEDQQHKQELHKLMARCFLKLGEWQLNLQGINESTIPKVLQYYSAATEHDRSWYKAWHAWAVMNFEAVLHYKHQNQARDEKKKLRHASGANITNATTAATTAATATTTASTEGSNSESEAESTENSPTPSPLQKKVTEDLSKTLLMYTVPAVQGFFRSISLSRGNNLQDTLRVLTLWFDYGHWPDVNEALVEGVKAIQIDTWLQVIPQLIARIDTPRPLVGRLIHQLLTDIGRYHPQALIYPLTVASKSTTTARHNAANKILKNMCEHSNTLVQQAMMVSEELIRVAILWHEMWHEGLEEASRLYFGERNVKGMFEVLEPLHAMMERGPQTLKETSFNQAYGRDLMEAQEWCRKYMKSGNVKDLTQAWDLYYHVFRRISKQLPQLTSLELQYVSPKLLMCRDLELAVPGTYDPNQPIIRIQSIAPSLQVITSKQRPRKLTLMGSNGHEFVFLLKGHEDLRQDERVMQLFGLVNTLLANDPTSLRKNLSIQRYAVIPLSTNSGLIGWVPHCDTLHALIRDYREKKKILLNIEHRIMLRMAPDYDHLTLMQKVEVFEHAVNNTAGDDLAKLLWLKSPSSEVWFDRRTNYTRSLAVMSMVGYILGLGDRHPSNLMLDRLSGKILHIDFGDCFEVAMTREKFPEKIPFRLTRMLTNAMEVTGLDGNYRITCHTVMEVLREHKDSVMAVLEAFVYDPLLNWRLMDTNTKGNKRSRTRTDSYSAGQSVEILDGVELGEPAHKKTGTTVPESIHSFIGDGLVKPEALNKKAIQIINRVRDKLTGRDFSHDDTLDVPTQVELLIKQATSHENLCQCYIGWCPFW

SMILES	IC50 [1]	PI3Ka IC50 [2]	IC50 [3]	IC50 [4]	inhibition at 1 µM [4, 5]	inhibition at 3 µM [4, 5]
CN1CC(C)(C)Oc2nc(N3CC4CCC(C3)O4)nc(-c3ccc(NC(=O)Nc4ccncc4)c(F)c3)c2C1=O [Example 83, 1-{2-Fluoro-4-[6,8,8-trimethyl-2-(8-oxa-3-azabicyclo[3.2.1]oct-3-yl)-5-oxo-5,6,7,8-tetrahydro-9-oxa-1,3,6-triazabenzocyclohepten-4-yl]phenyl}-3-pyridin-4-ylurea]	20 nM	1460 nM	41 nM	16 nM		
CCN1CC(C)(C)Oc2nc(N3CC4CCC(C3)O4)nc(-c3ccc(NC(=O)Nc4ccc(N5CCS(=O)(=O)CC5)cc4)c(F)c3)c2C1=O [Example 237, 1-[4-(1,1-Dioxo-1λ6-thiomorpholin-4-yl)phenyl]-3-{4-[6-ethyl-8,8-dimethyl-2-(8-oxa-3-azabicyclo[3.2.1]oct-3-yl)-5-oxo-5,6,7,8-tetrahydro-9-oxa-1,3,6-triazabenzocyclohepten-4-yl]-2-fluorophenyl}urea]	39 nM	>7200 nM	49 nM	80 nM		
CCN1CC(C)(C)Oc2nc(N3CC4CCC(C3)O4)nc(-c3ccc(NC(=O)OC[C@H](C)O)cc3)c2C1=O [Example 88, {4-[6-Ethyl-8,8-dimethyl-2-(8-oxa-3-azabicyclo[3.2.1]oct-3-yl)-5-oxo-5,6,7,8-tetrahydro-9-oxa-1,3,6-triazabenzocyclohepten-4-yl]phenyl}carbamic acid (S)-2-hydroxypropyl ester]	198 nM	>10000 nM	1900 nM		65%	
CC1(C)CN(C2CCOCC2)C(=O)c2c(nc(N3CC4CCC(C3)O4)nc2-c2ccc(NC(=O)Nc3ccon3)c(F)c2)O1 [Example 153, 1-{4-[8,8-Dimethyl-2-(8-oxa-3-azabicyclo[3.2.1]oct-3-yl)-5-oxo-6-(tetrahydropyran-4-yl)-5,6,7,8-tetrahydro-9-oxa-1,3,6-triazabenzocyclohepten-4-yl]-2-fluorophenyl}-3-isoxazol-3-ylurea]	31 nM	>10000 nM	346 nM	116 nM		
CCN1CC(C)(C)Oc2nc(N3CC4CCC(C3)O4)nc(-c3ccc(NC(=O)Nc4ccc(C)cn4)cc3)c2C1=O [Example 34, 1-{4-[6-Ethyl-8,8-dimethyl-2-(8-oxa-3-azabicyclo[3.2.1]oct-3-yl)-5-oxo-5,6,7,8-tetrahydro-9-oxa-1,3,6-triazabenzocyclohepten-4-yl]phenyl}-3-(5-methylpyridin-2-yl)urea]	43 nM	>10000 nM	320 nM	70 nM		
CCN1CC(C)(C)Oc2nc(N3CC4CCC(C3)O4)nc(-c3ccc(NC(=O)Nc4ccc(F)c(OC)c4)c(F)c3)c2C1=O [Example 138, 1-{4-[6-Ethyl-8,8-dimethyl-2-(8-oxa-3-azabicyclo[3.2.1]oct-3-yl)-5-oxo-5,6,7,8-tetrahydro-9-oxa-1,3,6-triazabenzocyclohepten-4-yl]-2-fluorophenyl}-3-(4-fluoro-3-methoxyphenyl)urea]	299 nM	>10000 nM	331 nM	105 nM		
CCN1CC(C)(C)Oc2nc(N3CCOC[C@@H]3C)nc(-c3ccc(NC(=O)OCCO)c(F)c3)c2C1=O [Example 209, {4-[6-Ethyl-8,8-dimethyl-2-((S)-3-methylmorpholin-4-yl)-5-oxo-5,6,7,8-tetrahydro-9-oxa-1,3,6-triazabenzocyclohepten-4-yl]-2-fluorophenyl}carbamic acid 2-hydroxyethyl ester]	155 nM	>10000 nM	1050 nM	69 nM		
CCN1CC(C)(C)Oc2nc(N3CCOC[C@@H]3C)nc(-c3ccc(NC(=O)Nc4cnccn4)c(F)c3)c2C1=O [Example 160, 1-{4-[6-Ethyl-8,8-dimethyl-2-((S)-3-methylmorpholin-4-yl)-5-oxo-5,6,7,8-tetrahydro-9-oxa-1,3,6-triazabenzocyclohepten-4-yl]-2-fluorophenyl}-3-pyrazin-2-ylurea]	41 nM	4900 nM	744 nM	114 nM		
CCN1CC(C)(C)Oc2nc(N3CCOC[C@@H]3C)nc(-c3ccc(NC(=O)Nc4ccc(C)nc4)c(F)c3)c2C1=O [Example 161, 1-{4-[6-Ethyl-8,8-dimethyl-2-((S)-3-methylmorpholin-4-yl)-5-oxo-5,6,7,8-tetrahydro-9-oxa-1,3,6-triazabenzocyclohepten-4-yl]-2-fluorophenyl}-3-(6-methylpyridin-3-yl)urea]	38 nM	321 nM	60 nM	9 nM		
CCN1CC(C)(C)Oc2nc(N3C4CCC3COC4)nc(-c3ccc(NC(=O)Nc4ccc(N5CCOCC5(C)C)nc4)c(F)c3)c2C1=O [Example 257, 1-[6-(3,3-Dimethylmorpholin-4-yl)pyridin-3-yl]-3-{4-[6-ethyl-8,8-dimethyl-2-(3-oxa-8-azabicyclo[3.2.1]oct-8-yl)-5-oxo-5,6,7,8-tetrahydro-9-oxa-1,3,6-triazabenzocyclohepten-4-yl]-2-fluorophenyl}urea]	142 nM	>10000 nM	63 nM	46 nM		
CCN1CC(C)(C)Oc2nc(N3CC4CCC(C3)O4)nc(-c3ccc(NC(=O)Nc4cc(C)nc(C)c4)c(F)c3)c2C1=O [Example 58, 1-(2,6-Dimethylpyridin-4-yl)-3-{4-[6-ethyl-8,8-dimethyl-2-(8-oxa-3-azabicyclo[3.2.1]oct-3-yl)-5-oxo-5,6,7,8-tetrahydro-9-oxa-1,3,6-triazabenzocyclohepten-4-yl]-2-fluorophenyl}urea]	28 nM	9470 nM	71 nM	20 nM		
CCN1CC(C)(C)Oc2nc(N3CC4CCC(C3)O4)nc(-c3ccc(NC(=O)NCCO)cc3)c2C1=O [Example 117, 1-{4-[6-Ethyl-8,8-dimethyl-2-(8-oxa-3-azabicyclo[3.2.1]oct-3-yl)-5-oxo-5,6,7,8-tetrahydro-9-oxa-1,3,6-triazabenzocyclohepten-4-yl]phenyl}-3-(2-hydroxyethyl)urea]	25 nM	7410 nM	1700 nM	812 nM		
CCN1CC(C)(C)Oc2nc(N3CC4CCC(C3)O4)nc(-c3ccc(NC(=O)Nc4ccc(C(=O)NCC(C)(C)O)cc4)cc3)c2C1=O [Example 190, 4-(3-{4-[6-Ethyl-8,8-dimethyl-2-(8-oxa-3-azabicyclo[3.2.1]oct-3-yl)-5-oxo-5,6,7,8-tetrahydro-9-oxa-1,3,6-triazabenzocyclohepten-4-yl]phenyl}ureido)-N-(2-hydroxy-2-methylpropyl)benzamide]	40 nM	927 nM	734 nM			69%
CCN1CC(C)(C)Oc2nc(N3CC4CCC(C3)O4)nc(-c3ccc(NC(=O)NC4CC4)c(F)c3)c2C1=O [Example 133, 1-Cyclopropyl-3-{4-[6-ethyl-8,8-dimethyl-2-(8-oxa-3-azabicyclo[3.2.1]oct-3-yl)-5-oxo-5,6,7,8-tetrahydro-9-oxa-1,3,6-triazabenzocyclohepten-4-yl]-2-fluorophenyl}urea]	33 nM	>10000 nM	219 nM	92 nM		
CCN1CC(C)(C)Oc2nc(N3CCOC[C@@H]3C)nc(-c3ccc(NC(=O)Nc4cc(OC)ccn4)cc3)c2C1=O [Example 184, 1-{4-[6-Ethyl-8,8-dimethyl-2-((S)-3-methylmorpholin-4-yl)-5-oxo-5,6,7,8-tetrahydro-9-oxa-1,3,6-triazabenzocyclohepten-4-yl]phenyl}-3-(4-methoxypyridin-2-yl)urea]	12 nM	12978 nM	368 nM	65 nM		
COCCN1CC(C)(C)Oc2nc(N3CC4CCC(C3)O4)nc(-c3ccc(NC(=O)Nc4ccc(OC)nc4)cc3)c2C1=O [Example 197, 1-{4-[6-(2-Methoxyethyl)-8,8-dimethyl-2-(8-oxa-3-azabicyclo[3.2.1]oct-3-yl)-5-oxo-5,6,7,8-tetrahydro-9-oxa-1,3,6-triazabenzocyclohepten-4-yl]phenyl}-3-(6-methoxypyridin-3-yl)urea]	117 nM	>10000 nM	523 nM	150 nM		
CCN1CC(C)(C)Oc2nc(N3CC4CCC(C3)O4)nc(-c3ccc(NC(=O)Nc4ccc(N5CCCCC5)nc4)c(F)c3)c2C1=O [Example 31, 1-{4-[6-Ethyl-8,8-dimethyl-2-(8-oxa-3-azabicyclo[3.2.1]oct-3-yl)-5-oxo-5,6,7,8-tetrahydro-9-oxa-1,3,6-triazabenzocyclohepten-4-yl]-2-fluorophenyl}-3-(3,4,5,6-tetrahydro-2H-[1,2′]bipyridinyl-5′-yl)urea]	65 nM	>10000 nM	35 nM	17 nM		
